Earlier results on four compounds are cited in US8242172B2, “2,2-dimethylbutyric acid oral pharmaceutical compositions” (Trustees of Boston University, priority 1998, dated 2012).

Data set [1] addresses T1, ΔF508-CFTR (Homo sapiens, UniProt P13569, DEL508-508). The arrangement: primary cultures of nasal polyp epithelia from CF patients (ΔF508 homozygous or heterozygous); endogenous in cells; host or cells: primary nasal polyp epithelia from CF patients; IB3-1 CF bronchial epithelial cell line. The settings on record: IB3-1 cells, 2.5 mM.
The test system of data set [2] is ΔF508-CFTR. The settings on record: IB3-1 cells, 0.1-1 mM; primary nasal epithelia, 5 mM.
The target in data set [3] is T1, ΔF508-CFTR. The arrangement: primary cultures of nasal polyp epithelia from CF patients (ΔF508 homozygous or heterozygous); endogenous in cells; host or cells: primary nasal polyp epithelia from CF patients; IB3-1 CF bronchial epithelial cell line. The settings on record: 0.1 and 2 mM, up to 7 days in culture; primary nasal polyp epithelia from CF patients or IB3-1.

For data set [4], the system named is CF patients. The settings on record: human, in vivo.
The subject of data set [5] is IB3-1 cells. The settings on record: equimolar concentrations (1-2 mM).
The target in data set [6] is T1, ΔF508-CFTR. The settings on record: up to 300 mM.
The subject of data set [7] is ΔF508-CFTR. The settings on record: 5 mM, 24 hours, C-127 cells.
Data set [8] deals with thalassemic patients.
In data set [9] the target is T1, ΔF508-CFTR. The settings on record: 1 M or 10%.

T1 sequence (P13569 with tags, fused parts or gaps DEL508-508): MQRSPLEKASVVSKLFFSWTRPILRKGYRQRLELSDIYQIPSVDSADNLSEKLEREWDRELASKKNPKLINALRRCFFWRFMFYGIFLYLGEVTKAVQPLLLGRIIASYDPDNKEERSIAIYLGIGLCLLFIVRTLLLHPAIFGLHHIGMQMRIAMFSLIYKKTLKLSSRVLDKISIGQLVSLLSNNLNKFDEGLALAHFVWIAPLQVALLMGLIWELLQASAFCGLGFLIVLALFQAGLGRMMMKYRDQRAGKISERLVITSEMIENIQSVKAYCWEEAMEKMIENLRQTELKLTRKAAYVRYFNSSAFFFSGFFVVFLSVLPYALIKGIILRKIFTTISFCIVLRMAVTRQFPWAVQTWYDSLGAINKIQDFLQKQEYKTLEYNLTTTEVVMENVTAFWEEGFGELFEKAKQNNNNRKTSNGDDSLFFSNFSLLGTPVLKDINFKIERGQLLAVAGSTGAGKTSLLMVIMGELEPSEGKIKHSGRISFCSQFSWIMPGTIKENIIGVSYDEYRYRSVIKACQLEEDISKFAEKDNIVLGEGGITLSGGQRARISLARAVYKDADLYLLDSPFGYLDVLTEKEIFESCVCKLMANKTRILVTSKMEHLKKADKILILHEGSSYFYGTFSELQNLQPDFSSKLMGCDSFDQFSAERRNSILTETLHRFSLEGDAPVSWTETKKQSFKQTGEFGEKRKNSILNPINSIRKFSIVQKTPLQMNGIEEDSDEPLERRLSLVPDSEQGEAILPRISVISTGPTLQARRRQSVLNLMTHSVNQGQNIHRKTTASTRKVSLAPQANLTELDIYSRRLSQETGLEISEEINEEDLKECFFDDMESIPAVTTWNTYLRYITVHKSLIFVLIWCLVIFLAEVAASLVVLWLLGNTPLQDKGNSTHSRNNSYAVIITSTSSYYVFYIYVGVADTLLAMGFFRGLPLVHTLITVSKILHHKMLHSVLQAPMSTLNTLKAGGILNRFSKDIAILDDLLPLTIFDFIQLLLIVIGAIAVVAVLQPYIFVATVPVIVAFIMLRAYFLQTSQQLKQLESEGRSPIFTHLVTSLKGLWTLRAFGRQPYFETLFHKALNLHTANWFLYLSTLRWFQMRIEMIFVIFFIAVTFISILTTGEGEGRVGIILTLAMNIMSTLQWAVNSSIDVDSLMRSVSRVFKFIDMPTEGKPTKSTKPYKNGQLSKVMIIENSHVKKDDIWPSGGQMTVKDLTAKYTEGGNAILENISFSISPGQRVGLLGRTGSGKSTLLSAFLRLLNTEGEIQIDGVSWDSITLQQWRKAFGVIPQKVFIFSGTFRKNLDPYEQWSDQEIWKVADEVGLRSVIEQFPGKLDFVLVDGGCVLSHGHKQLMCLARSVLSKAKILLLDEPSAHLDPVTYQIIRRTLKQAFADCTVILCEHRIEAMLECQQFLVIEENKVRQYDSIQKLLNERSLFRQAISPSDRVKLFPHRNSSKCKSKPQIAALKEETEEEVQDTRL

For the compound `O=C(O)CCCc1ccccc1` [4PBA, 4-phenylbutyrate], the “protein kinase A-activated, linear, 10 pS chloride channels at plasma membrane” value in [1] was “chloride channels appeared at the plasma membrane”. The “higher molecular mass forms of CFTR (immunoblot)” value in data set [2] was “appearance of higher molecular mass forms of CFTR”. For the same compound, the forskolin-activated chloride secretion entry in data set [3] is reported as “restoration of forskolin-activated chloride secretion”. Besides, the clinical tolerability entry in [4] is on record as “not well tolerated”.

Regarding `CCCC(=O)O` [butyrate, butyric acid], the “cell morphology and growth rate” value in [5] is “morphologic changes in IB3-1 cells, with rounding of cells and decreased growth rate”. Further, the “cAMP-stimulation indicative of chloride ion transport” value in [6] is given as “no increases in cAMP-stimulation was observed”. Besides, in [7], the “~180-kD mature glycosylated species of CFTR” value is listed as “not observed” and the “ΔF508-CFTR mRNA by Northern analysis” value is recorded as “massive increase in ΔF508-CFTR mRNA”.

In the case of arginine butyrate, in [8] (continuous administration at about 2000 mg/kg patient weight), the “effectiveness at continuous administration” value is given as “effective”. The “benefit measured by rise in fetal hemoglobin levels” value in [8] (pulses, about 400 to 1500 mg/kg, thalassemic patients) is given as “surprisingly more beneficial”.

As for `OCC(O)CO` [glycerol], in data set [9], the “movement of ΔF508-CFTR from the ER to the plasma membrane” value is on record as “appears to facilitate movement of ΔF508-CFTR from the ER to the plasma membrane”.
